pIC50: −log10 of the molar value.
system: P. falciparum 3D7 growth, pLDH absorbance; assay: P. falciparum 3D7 growth inhibition, dose response, strain 3D7 (AID 2305)

| SMILES | pIC50 |
| --- | --- |
| CC(=O)C1(c2ccccc2)CCN(CCC2(c3ccc(Cl)c(Cl)c3)CN(C(=O)Nc3cccc(C(F)(F)F)c3)CCO2)CC1 (centres undefined) | 5.98 |
| CC1(C)CN(CCC2CCC(NC(=O)/C=C/c3ccc(F)cc3F)CC2)Cc2ccc(C#N)cc21 (centres undefined) | 6.10 |
| Cc1ccc(CNc2ccc3ncc(-c4cccc(C(=O)NCCN(C)C)c4)n3n2)c(C)c1 | 6.23 |
| CCCCCCc1ncc(-c2cc3cc(O)c(-c4ccccc4)cc3oc2=O)s1 | 5.91 |
| FC(F)(F)COc1ccc2ccccc2c1CNCCCCCCNCc1c(OCC(F)(F)F)ccc2ccccc12 | 6.46 |
| Fc1ccc2nc(-c3ccc(-c4ccc(CN5CCN(c6cnccn6)CC5)cc4)s3)[nH]c2c1 | 6.21 |
| CN(C)CCCNc1ncnc2c1[nH]c1ccc(Cl)cc12 | 6.55 |
| COc1c(C2CCN(CCCCNC(=O)c3ccc(NC(=O)c4ccc(C#N)cc4)cc3)CC2)ccc2c1CCCC2 | 6.54 |
| COc1c(C)[nH]c(C)c(-c2ccc(Oc3cccc(C(F)(F)F)c3)cc2)c1=O | 6.51 |
| C#CCOc1ccccc1CN1CCC(N2CCc3cc(NC(=O)c4cc(C)on4)ccc32)C1 (centres undefined) | 6.17 |
| CC1CN(c2ccc(NC(=O)c3ccsc3)cc2C(=O)N2CCN(Cc3ccc(C(C)(C)C)cc3)CC2)CC(C)O1 (centres undefined) | 6.06 |
| Cc1[nH]c(C)c(-c2ccc(-c3ccccc3)nc2)c(=O)c1Br | 6.18 |
| COc1cc(C=CC(=O)N2CCC3(CC2)CC(=O)c2ccccc2O3)cc(OC)c1OC | 6.12 |
| O=C(Nc1ccccc1F)NC1CCN(c2ccnc(Nc3ccc(F)cc3)n2)C1 (centres undefined) | 6.07 |
| O=[N+]([O-])c1cccc(C=NNc2ccnc3cc(F)ccc23)c1 | 6.04 |
| CCc1cccc(-c2cc(=N)n(C)c3nc(N)[nH]c(=O)c23)c1 | 5.95 |
| CCOc1c(CNCCCCCCNCc2ccc3ccccc3c2OCC)ccc2ccccc12 | 6.12 |
| Cc1nc2nc(N)nc(N)c2c(C)c1Cc1cccc(C(N)=O)c1 | 5.97 |
| N#Cc1ccc(N[C@@H](CC2CCCCC2)C(=O)NCc2cc(F)c(F)cc2F)c2ccccc12 | 6.02 |
| O=C(NCC(c1ccc(C(F)(F)F)cc1)N1CCCC1)c1cc(-c2ccncc2)c(-c2cccc(O)c2)o1 (centres undefined) | 5.97 |
| NC(=O)c1cc2nc(NC3CCC3)nc(Nc3cccc4[nH]ncc34)c2[nH]1 | 6.14 |
| CCOc1ccc2c(NN=Cc3cccc(F)c3)cc(C)nc2c1 | 6.15 |
| Cc1ccc2nc(C)cc(NN=Cc3cccc(F)c3)c2c1 | 6.20 |
| COc1ccc([N+](=O)[O-])cc1N(Cc1ccccc1-c1ccccc1)S(=O)(=O)c1ccc(C(F)(F)F)cc1 | 6.11 |
| COc1ccc(NC(C)C(=O)Nc2ccc(Br)cc2)cc1S(=O)(=O)N1CCCCC1 (centres undefined) | 6.66 |

| SMILES | pIC50 |
| --- | --- |
| O=C(NC1CC1)c1cnc(N2CCCC(c3ccccc3)C2)c(Cl)c1 (centres undefined) | 6.10 |
| COc1ccc2nccc([C@@H](O)CN3CCC(NCCOc4ccc(F)cc4[N+](=O)[O-])CC3)c2c1 | 6.92 |
| O=C(Nc1ccc(Oc2ccccc2)cc1)N(Cc1ccc(-c2ccc(CN3CCNCC3)cc2)cc1)C1CCN(Cc2ccccc2)CC1 | 6.05 |
| COc1cccc(CCN(Cc2ccccc2-c2ccc(CNC3CC(C)(C)NC(C)(C)C3)cc2)C(=O)NC2CCCCC2)c1 | 6.03 |
| CN1CCN(C(C(=O)NCc2cc(Cl)cc(Cl)c2)c2ccc(Nc3cccc(C(F)(F)F)c3)cc2)CC1 (centres undefined) | 5.95 |
| C[C@H](N[C@H]1CCCc2c1[nH]c1ccc(Br)cc21)c1ccccc1 | 6.66 |
| CC(C)N1CCC(N(Cc2ccc(-c3ccc(C(F)(F)F)cc3)cc2)C(=O)Cn2c(CCc3cccc(F)c3F)cc(=O)c3cn(C)nc32)CC1 | 5.93 |
| CNC(=O)c1ccccc1Nc1nc(Nc2ccc(CCN3CCN(C)CC3)cc2)ncc1Cl | 6.19 |
| COc1ccc2nc(Nc3nc4ccncc4[nH]3)sc2c1 | 5.95 |
| Cc1ccccc1CNc1nccc(NCCC(=O)Nc2ccccc2)n1 | 6.05 |
| COc1ccc2nc(-c3cc(-c4ccc(NC(=O)CN5CCOCC5)cc4)cnc3N)[nH]c2c1 | 6.21 |
| Cc1cc(NN=Cc2ccc(F)cc2)c2cccc(C)c2n1 | 6.11 |
| CCCCNCc1cc(Cl)c2ccccc2c1O | 6.34 |
| Cc1cc(NN=Cc2ccccc2F)c2cc(F)ccc2n1 | 6.52 |
| CSc1ccc(CN2CCC(CNC(=O)c3cc(-c4ccccc4F)cs3)C2)cc1 (centres undefined) | 5.94 |
| Cc1cc(N2CCCC2)nc(Nc2ccc(NC(=O)Cc3ccccc3)cc2)n1 | 6.21 |
| O=C(Nc1ccc(C(F)(F)F)cc1)NC1CCN(c2ccnc3cc(Cl)ccc23)CC1 | 6.74 |
| Oc1ccc(Nc2nc(NCc3ccco3)c3ccccc3n2)cc1 | 6.17 |
| N#Cc1ccc(CN2CCCN(Cc3cccc(NC(=O)c4ccc(Cl)c(Cl)c4)c3)CC2)cc1 | 6.07 |
| O=C(/C=C/c1ccc(Cl)c(Cl)c1)NCCC(CN1CCC(c2c[nH]c3ccccc23)CC1)c1ccccc1 (centres undefined) | 6.24 |
| O=C(/C=C/c1c(Cl)cccc1Cl)NC1CCC(CN2[C@@H]3CC[C@H]2CC(c2c[nH]c4ccccc24)C3)CC1 (some centres undefined) | 6.08 |
| CCN(CC)CCNC(=O)c1ccc(NC(=O)c2oc3c(Cl)cccc3c2C)cc1 | 6.15 |
| OC(CNC1CCCCC1)Cn1c2ccccc2c2ccccc21 (centres undefined) | 6.00 |
| Cc1cccc(C)c1N1CCN(C2CCC(NC(=O)/C=C/c3ccccc3)CC2)CC1 (centres undefined) | 5.93 |

— PubChem BioAssay AID2305 (GlaxoSmithKline (GSK), 2010)
